Patent US6656690B2, “Mass spectrometric methods for biomolecular screening” (priority 1998, dated 2003)

Biological target: 27-mer model of the bacterial A site region, chimeric C
Experiment: Binding to 27-mer A site model as chimeric 2'-O-methylribonucleotide with three deoxyadenosines (C)
Settings: RNA C
Procedure: The 27-mer model of a segment of the bacterial A site region has been prepared as a full ribonucleotide (see FIG. 27, compound R), and as a chimeric 2′-O-methylribonucleotide containing three deoxyadenosine residues (see FIG. 27, compound C). RNAs R and C have been prepared using conventional phosphoramidite chemistry on solid support. Phosphoramidites were purchased from Glen Research and used as 0.1 M solutions in acetonitrile. RNA R was prepared following the procedure given in Wincott, et al., Nucl. Acids Res., 1995, 23, 2677-2684, the disclosure of which is incorporated herein by reference in its entirety. RNA C was prepared using standard coupling cycles, deprotected, and precipitated from 10 M NH4OAc. The aminoglycoside paromomycin binds to both R and C with kD values of 0.25 and 0.45 micromolar, respectively. The reported kD values are around 0.2 μM. […]
The mass spectrum obtained from a 5 μM solution of C mixed with 125 nM paromomycin (FIG. 28A) contains [M-5H]5− ions from free C at m/z 1783.6 and the [M-5H]5− ions of the paromomycin-C complex at m/z 1907.3. […] Signals from the [M-4H]4− ions of C and the complex are detected at m/z 2229.8 and 2384.4, respectively. […] Fragment ions are detected at m/z 1005.6 (w6)2−, 1065.8 (a7-B)2−, 1162.6 (w7)2−, 1756.5 (M-Ad)5−, 2108.9 (w21-Ad)3−, 2153.4 (a20-B)3−, 2217.8 (w21)3−, and 2258.3 (a21-B)3−. […]

`NC[C@@H]1O[C@H](O[C@H]2[C@@H](O)[C@H](O[C@@H]3[C@@H](O)[C@H](N)C[C@H](N)[C@H]3O[C@H]3O[C@H](CO)[C@@H](O)[C@H](O)[C@H]3N)O[C@@H]2CO)[C@H](N)[C@@H](O)[C@@H]1O` [paromomycin] gave a Kd of 450 nM.
